Measured values from ChEMBL document CHEMBL1201862, “PubChem BioAssay data set” (2004).
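In this assay, cells in 96-well plates receive the compound at five concentrations for 48 hours. Endpoints are linearly interpolated between the surrounding concentrations. Here, GI50 denotes the concentration required for 50% inhibition of growth.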 Activity calls are given as the source filed them. Cut-off read from the data, not from the text of the source: active = GI50 up to about 1.1 µM and inactive = higher.

What was measured:
Test in all cases: growth of human tumour cells (NCI), 48 h
HL-60 = system: HL-60
IGROV-1 = system: IGROV-1
HCT-116 = system: HCT-116
SF-268 = system: SF-268
NCI-H522 = system: NCI-H522
CCRF-CEM = system: CCRF-CEM
SW-620 = system: SW-620
SN12C = system: SN12C
COLO 205 = system: COLO 205
MOLT-4 = system: MOLT-4
HT-29 = system: HT-29
EKVX = system: EKVX
A549 = system: A549
786-0 = system: 786-0
UO-31 = system: UO-31
ACHN = system: ACHN
LOX IMVI = system: LOX IMVI

Measured: GI50

Cc1nc2cc3nc4ccccc4c(O)c3cc2s1
inactive: HL-60 > 100 µM | IGROV-1 > 100 µM | HCT-116 > 100 µM | SF-268 > 100 µM | NCI-H522 > 100 µM | CCRF-CEM > 100 µM | SW-620 > 100 µM | SN12C > 100 µM | COLO 205 > 100 µM | MOLT-4 > 100 µM | HT-29 > 100 µM | EKVX > 100 µM | A549 > 100 µM | 786-0 > 100 µM | UO-31 > 100 µM | ACHN > 100 µM

Cc1c2n(c3ccccc13)CC1C2N(C)OC1(C)C (stereo unspecified)
inactive: HCT-116 > 100 µM | SF-268 > 100 µM | NCI-H522 > 100 µM | CCRF-CEM > 100 µM | SN12C > 100 µM | COLO 205 > 100 µM | MOLT-4 > 100 µM | HT-29 > 100 µM | EKVX > 100 µM | A549 > 100 µM | 786-0 > 100 µM | UO-31 86.7 µM | ACHN > 100 µM

COC(=O)N/N=C(\C)CC(=O)Nc1cccc([N+](=O)[O-])c1
inactive: HL-60 > 100 µM | IGROV-1 > 100 µM | HCT-116 > 100 µM | SF-268 > 100 µM | NCI-H522 > 100 µM | CCRF-CEM > 100 µM | SW-620 > 100 µM | COLO 205 > 100 µM | MOLT-4 > 100 µM | HT-29 > 100 µM | EKVX > 100 µM | A549 > 100 µM | 786-0 > 100 µM | LOX IMVI > 100 µM | UO-31 > 100 µM

CCOC(=O)C(=O)Nc1c(C(C)C)cccc1C(C)C
inactive: HL-60 > 100 µM | IGROV-1 > 100 µM | HCT-116 > 100 µM | SF-268 > 100 µM | NCI-H522 > 100 µM | CCRF-CEM > 100 µM | SW-620 > 100 µM | SN12C > 100 µM | COLO 205 > 100 µM | MOLT-4 > 100 µM | HT-29 > 100 µM | EKVX > 100 µM | A549 > 100 µM | 786-0 > 100 µM | UO-31 > 100 µM | ACHN > 100 µM

Cc1ccc(S(=O)(=O)C2c3nc4ccccc4cc3-c3nc4ccccc4nc32)cc1 (stereo unspecified)
inactive: HL-60 > 100 µM | IGROV-1 > 100 µM | HCT-116 > 100 µM | SF-268 > 100 µM | NCI-H522 > 100 µM | CCRF-CEM > 100 µM | SW-620 > 100 µM | SN12C > 100 µM | COLO 205 > 100 µM | MOLT-4 > 100 µM | EKVX > 100 µM | A549 > 100 µM | 786-0 > 100 µM | LOX IMVI > 100 µM | UO-31 > 100 µM | ACHN > 100 µM

O=S1(=O)CSc2ccc3ccccc3c2-c2c1ccc1ccccc21
inactive: HL-60 > 100 µM | IGROV-1 > 100 µM | HCT-116 > 100 µM | SF-268 > 100 µM | NCI-H522 > 100 µM | CCRF-CEM > 100 µM | SW-620 > 100 µM | SN12C > 100 µM | COLO 205 > 100 µM | MOLT-4 > 100 µM | HT-29 > 100 µM | A549 > 100 µM | 786-0 > 100 µM | LOX IMVI > 100 µM | UO-31 > 100 µM | ACHN > 100 µM

COc1ccc(CCn2c(=O)c3ccccc3n(C)c2=O)cc1
inactive: IGROV-1 > 100 µM | HCT-116 38.7 µM | SF-268 56.4 µM | NCI-H522 24.2 µM | CCRF-CEM 23.7 µM | SW-620 15.9 µM | SN12C 80.7 µM | COLO 205 13.1 µM | MOLT-4 33.8 µM | HT-29 23.3 µM | EKVX 60.4 µM | A549 50.9 µM | 786-0 67.1 µM | UO-31 40.4 µM | ACHN > 100 µM

CC(=O)OCC1OC(OC2C(CSC3OC(COC(C)=O)C(OC(C)=O)C(OC(C)=O)C3OC(C)=O)OC(OC(C)=O)C(OC(C)=O)C2OC(C)=O)C(OC(C)=O)C(OC(C)=O)C1OC(C)=O (stereo unspecified)
inactive: IGROV-1 > 100 µM | HCT-116 > 100 µM | SF-268 > 100 µM | NCI-H522 > 100 µM | CCRF-CEM > 100 µM | SW-620 > 100 µM | SN12C > 100 µM | COLO 205 > 100 µM | MOLT-4 > 100 µM | HT-29 > 100 µM | EKVX > 100 µM | A549 > 100 µM | 786-0 > 100 µM | LOX IMVI > 100 µM | UO-31 > 100 µM | ACHN > 100 µM

Nc1c(S(=O)(=O)c2ccc(Cl)cc2)c2nc3ccccc3nc2n2ccnc12
inactive: HL-60 30.1 µM | IGROV-1 98.6 µM | HCT-116 44.3 µM | SF-268 43.1 µM | NCI-H522 53.7 µM | CCRF-CEM 39.4 µM | SN12C > 100 µM | COLO 205 > 100 µM | MOLT-4 > 100 µM | HT-29 > 100 µM | EKVX 93.8 µM | A549 85.9 µM | 786-0 36.2 µM | UO-31 > 100 µM | ACHN 40.3 µM

[O-][S+]1c2ccccc2N=C(c2ccc3ccccc3c2)CC1c1ccccc1F (stereo unspecified)
inactive: HL-60 > 100 µM | IGROV-1 > 100 µM | SF-268 > 100 µM | NCI-H522 72.3 µM | CCRF-CEM 67.8 µM | SW-620 > 100 µM | SN12C > 100 µM | COLO 205 > 100 µM | MOLT-4 48.2 µM | HT-29 > 100 µM | EKVX > 100 µM | A549 > 100 µM | 786-0 > 100 µM | LOX IMVI > 100 µM | UO-31 > 100 µM | ACHN > 100 µM

CC1OC(OC2C(OC(=O)[C@]34CCC(C)(C)CC3C3=CCC5[C@@]6(C)C[C@H](O)[C@H](OC7OC(COC8OC(CO)C(O)C(O)C8O)C(O)C(O)C7O)[C@@](C)(C(=O)O)C6CC[C@@]5(C)C3(C)CC4)OCC(O)C2O)C(O)C(O)C1OC1OCC(O)C(O)C1O (stereo partly specified)
inactive: HL-60 > 100 µM | IGROV-1 > 100 µM | SF-268 > 100 µM | NCI-H522 > 100 µM | CCRF-CEM > 100 µM | SW-620 > 100 µM | SN12C > 100 µM | COLO 205 > 100 µM | MOLT-4 > 100 µM | HT-29 > 100 µM | EKVX > 100 µM | A549 > 100 µM | 786-0 > 100 µM | LOX IMVI > 100 µM | UO-31 > 100 µM | ACHN > 100 µM

Cc1cc(C)nc(Sc2c([N+](=O)[O-])ncn2C)n1
inactive: IGROV-1 > 100 µM | HCT-116 > 100 µM | SF-268 > 100 µM | NCI-H522 > 100 µM | CCRF-CEM 56.9 µM | SW-620 > 100 µM | SN12C > 100 µM | COLO 205 > 100 µM | MOLT-4 69.5 µM | HT-29 > 100 µM | EKVX > 100 µM | A549 > 100 µM | 786-0 > 100 µM | LOX IMVI 57.1 µM | UO-31 > 100 µM | ACHN > 100 µM
